{"source": "patent US12071407B1", "about": "“6-(4-hydroxyphenyl)-2-(2-ethoxyethoxy)-4-(4-methoxyphenyl)nicotinonitrile as an antimicrobial compound” (KING FAISAL UNIVERSITY, priority 2023, dated 2024)", "key": {"Escherichia coli": {"test_system": "Escherichia coli", "assay": "Antimicrobial screening by agar dilution", "type": "cell-based", "conditions": "after 10, 20, 40 and 60 minutes at all dilutions 1:100, 1:200, 1:400, 1:800", "experimental": "(§1) The antibacterial properties of the synthesized compound 6-(4-hydroxyphenyl)-2-(2-ethoxyethoxy)-4-(4-methoxyphenyl)nicotinonitrile were studied by the method of agar dilution. Test solutions of each compound was prepared in concentration of 1% using dimethylformamide as a solvent then they are diluted in physiological solution to obtain the final experimental dilutions 1:100, 1:200, 1:400, 1:800. The effects of these substances are compared with furacillin in a controllable study. The testing microbes used were gram positive bacteria Staphylococcus aureus, gram negative bacteria Pseudomonas aeruginosa and Escherichia coli and Candida albicans fungus. The experiments used for this survey were meat-pentonlu agar (EPA) for cultivation of bacteria and Saburo environment for the fungus. Each experiment used 1 mL of test solution on each plate […]. Two drops of emulsified with microbes feel were added. All experimental samples were taken from the agar after 10, 20, 40, 60 minutes in the environment on the basis of Patrk planted. The bacteria were cultivated at a temperature of 37° C. for 1 day and the mushroom was kept in a thermostat for […] at a temperature of 28° C. Then results were checked."}, "Pseudomonas aeruginosa": {"test_system": "Pseudomonas aeruginosa", "assay": "Antimicrobial screening by agar dilution", "type": "cell-based", "conditions": "after 10, 20, 40 and 60 minutes at all dilutions 1:100, 1:200, 1:400, 1:800", "experimental": "as §1"}, "Candida albicans": {"test_system": "Candida albicans", "assay": "Antimicrobial screening by agar dilution", "type": "cell-based", "conditions": "after 10, 20, 40 and 60 minutes at all dilutions 1:100, 1:200, 1:400, 1:800", "experimental": "as §1"}, "Staphylococcus aureus": {"test_system": "Staphylococcus aureus", "assay": "Antimicrobial screening by agar dilution", "type": "cell-based", "conditions": "after 10, 20, 40 and 60 minutes at all dilutions 1:100, 1:200, 1:400, 1:800", "experimental": "as §1"}}, "data": [{"smiles": "CCOCCOc1nc(-c2ccc(O)cc2)cc(-c2ccc(OC)cc2)c1C#N", "note": "[6-(4-hydroxyphenyl)-2-(2-ethoxyethoxy)-4-(4-methoxyphenyl)nicotinonitrile]", "values": [{"measurement": "inhibition activity (summary in words)", "setting": "Escherichia coli", "result": "highest inhibition activity"}, {"measurement": "inhibition activity (summary in words)", "setting": "Pseudomonas aeruginosa", "result": "highest inhibition activity"}, {"measurement": "inhibition activity (summary in words)", "setting": "Candida albicans", "result": "highest inhibition activity"}, {"measurement": "inhibition activity (summary in words)", "setting": "Staphylococcus aureus", "result": "highest inhibition activity"}, {"measurement": "melting point", "result": "209 to 211", "unit": "°C"}]}]}
